Read-outs that look alike come from different tables or passages of the source. Marks after values point to notes of the source that are not given here.
Key:
[1] = Multiple ascending dose pharmacokinetics of ATQ (Example 5 Part 2); assay type: in vivo, human; settings: for Cmax / AUC: both sexes, human, plasma, oral; for AUC: read-out: AUC(0-tau, 24)
Procedure: The study was conducted in 2 parts. Part 1 was conducted in healthy male subjects only while Part 2 was conducted in healthy male and female subjects. The intent of this study part was to optimize the dosage regimen and diet for the multiple-dose safety and tolerance Part 2 of the study. All plasma ATQ concentrations were determined using a GLP validated bioanalytical method. ATQ was administered as an oral solution in oil (0.49 g/mL). The placebo solution consisted of olive oil alone.
Part 2 was conducted as a multiple-dose dose-escalation design. […] Dose administration was subsequently switched to a BID regimen administered for 14 days.
Part 2 was conducted as a multiple-dose dose-escalation design in male and female subjects. None of the subjects who participated in Part 1 of the study were eligible to participate in Part 2. A total of 32 subjects were enrolled in Part 2. Twenty (20) subjects received ATQ or placebo for one week in a single-blind, randomized, placebo-controlled design: Cohort 1 […] low dose (1 g/day as 0.33 g TID) and Cohort 2 […] midrange dose (2 g/day as 0.67 g TID). In each cohort, 8 subjects received ATQ and 2 subjects received placebo under fed conditions. An additional 12 subjects were subsequently enrolled into 2 additional cohorts of 6 subjects each. The 12 subjects were randomized to receive one of the two following ATQ doses: Cohort 3 (N=6) low dose (0.5 g BID) and Cohort 4 (N=6) intermediate dose (0.75 g BID) administered for 14 days with a standard meal. All subjects participating in Cohorts 3 and 4 received ATQ; there was no placebo arm.
For Part 2, serial blood samples for the measurement of the plasma levels of ATQ were collected in Cohorts 1 and 2 as part of a 3 times daily regimen prior to and over the first 6-hour dosing interval following administration of the first dose on Day 1, prior to the morning dose on Days 3, 5, and 6, over the 6-hour and 12-hour dosing intervals following the afternoon and evening dose, respectively, and up to 48 hours after the final (morning) dose on Day 7.
In Cohorts 3 and 4, serial blood samples for the measurement of the plasma levels of ATQ were collected for the twice-daily regimen prior to and over the 12-hour dosing interval following the first dose administration on Day 1, prior to the morning dose on Days 4, 7, 10, 13, and 14, and over the 12-hour dosing interval after the final (morning) dose on Day 14. Multiple-dose PK data over the dose range of 1.0-g/day (BID and TID), 1.5-g/day (BID), and 2.0-g/day (TID) were generated in this study.
Part 2 multiple-dose results are provided for Day 7 (Cohorts 1 and 2) or Day 14 unless otherwise indicated. Parameters designated with the term 24 refer to pharmacokinetic parameters derived for a 24-hour TID or BID dosing period.

[2] = Single-dose ascending-dose pharmacokinetics of ATQ in healthy volunteers (Example 4); settings: for CL/F: fed conditions, mean
Procedure: Healthy adult male subjects were enrolled into 1 of 6 cohorts of 10 subjects, and randomly assigned to receive either alpha-tocopherolquinone (ATQ) (8 subjects) in olive oil or placebo (2 subjects). Safety, tolerability and PK characteristics of ATQ were assessed under fasted conditions (low dose of 0.25 g and 0.5 g) and fed conditions (range of 0.5 g to 6.0 g), during co-administration with 400 IU vitamin E (2.0 g), and following a 2.2 g total dose administered in 3 equally-divided doses of 0.735 g, and 7 hours apart. There was a 2-week interval between dosing of cohorts while a medical review of the data collected on the preceding dose was conducted. Blood samples for the measurement of ATQ concentration were collected pre-dose and up to 168 hours following dose administration. All plasma ATQ concentrations were determined using a GLP validated bioanalytical method. Blood samples for the measurement of vitamin E concentrations were collected prior to and at 24 hours following dose administration (Cohorts 1, 2, and 3) and serially for up to 24 hours in Cohorts 4 through 6 except for Cohort 4, Period 2 (vitamin E co-administration) where samples were collected for up to 96 hours. Urine was collected for the measurement of ATQ and its metabolites in pooled intervals up to 72 hours post-dose for all cohorts.

[3] = 1-g/day (0.33 g TID), mean, N = 8
[4] = 1-g/day (0.5 g BID), morning dose data, N = 5
[5] = 1.5-g/day (0.75 g BID), morning dose data, N = 6
[6] = 2-g/day (0.67 g TID), mean, N = 7

CC1=C(C)C(=O)C(CC[C@](C)(O)CCC[C@H](C)CCC[C@H](C)CCCC(C)C)=C(C)C1=O [ATQ, alpha-tocopherolquinone]
Time for trough concentrations to reach steady state ([1]; 0.33 g TID): ≤ 3 days | Time for trough concentrations to reach steady state ([1]; 0.5 g BID): ≤ 4 days | Time for trough concentrations to reach steady state ([1]; 0.67 g TID): ≤ 3 days | Time for trough concentrations to reach steady state ([1]; 0.75 g BID): 13 days | Cmin ([1]; 1-g/day (0.33 g TID), Day 7, mean, N = 8): 583 ng/mL | CLpo, 24 ([1]; 1-g/day (0.33 g TID), daily dose divided by mean AUC(0-tau, 24)): 24.2 [c] L/h | Cavg, 24 h [1, 3]: 1730 ng/mL | Fluct24 h [1, 3]: 189% | TimeHgh(0-24) (time above the pharmacologically relevant concentration of 0.5 μg/mL) ([1]; 1-g/day (0.33 g TID), median, N = 8): 23.80 h | TimeHgh(0-24) (time above the pharmacologically relevant concentration of 0.5 μg/mL) ([1]; 1-g/day (0.5 g BID), 2 times the 0-12 hour morning dose value, N = 5): 19.68 [e] h | Cmin ([1]; 1-g/day (0.5 g BID), Day 14, mean, N = 5): 308 ng/mL | CLpo, 24 ([1]; 1-g/day (0.5 g BID), morning dose data, Day 14, N = 5): 57.5 L/h | Cavg, 24 h [1, 4]: 1040 ng/mL | Fluct24 h [1, 4]: 145% | Estimated daily AUC higher with TID than BID ([1]; 1-g/day: 0.33 g TID versus 0.5 g BID): approximately 66% | TimeHgh(0-24) (time above the pharmacologically relevant concentration of 0.5 μg/mL) ([1]; 1.5-g/day (0.75 g BID), 2 times the 0-12 hour morning dose value, N = 6): 21.84 [e] h | Cmin ([1]; 1.5-g/day (0.75 g BID), Day 14, mean, N = 6): 443 ng/mL | CLpo, 24 ([1]; 1.5-g/day (0.75 g BID), morning dose data, Day 14, N = 6): 53.5 L/h | Cavg, 24 h [1, 5]: 1380 ng/mL | Fluct24 h [1, 5]: 147% | Cmin ([1]; 2-g/day (0.67 g TID), Day 7, mean, N = 7): 1220 ng/mL | CLpo, 24 ([1]; 2-g/day (0.67 g TID), daily dose divided by mean AUC(0-tau, 24)): 18.5 [c] L/h | Cavg, 24 h [1, 6]: 4480 ng/mL | Fluct24 h [1, 6]: 177% | TimeHgh(0-24) (time above the pharmacologically relevant concentration of 0.5 μg/mL) ([1]; 2-g/day (0.67 g TID), median, N = 7): 23.87 h | Accumulation of Cmax ([1]; BID administration): did not accumulate | Cmax ([1]; 0.33 g, 1-g/day (0.33 g TID), Day 7, N = 8, read-out: Cmax last dose): 2400 ng/mL | Cmax ([1]; 0.33 g, 1-g/day (0.33 g TID), highest Cmax of the 3 serial TID profiles, Day 6 lunch, N = 8, read-out: Cmax): 3530 ng/mL | Cmax ([1]; 0.5 g, 1-g/day (0.5 g BID), Day 14, N = 5, read-out: Cmax last dose): 1890 ng/mL | Cmax ([1]; 0.5 g, 1-g/day (0.5 g BID), Day 14 morning dose, N = 5, read-out: Cmax): 1890 ng/mL | Cmax ([1]; 0.67 g, 2-g/day (0.67 g TID), Day 7, N = 7, read-out: Cmax last dose): 4280 ng/mL | Cmax ([1]; 0.67 g, 2-g/day (0.67 g TID), highest Cmax of the 3 serial TID profiles, Day 6 dinner, N = 7, read-out: Cmax): 9000 ng/mL | AUC ([1]; 0.75 g, 1.5-g/day (0.75 g BID), 2 times the 0-12 hour morning dose value, N = 6): 33200 ng·h/mL | Cmax ([1]; 0.75 g, 1.5-g/day (0.75 g BID), Day 14, N = 6, read-out: Cmax last dose): 2540 ng/mL | Cmax ([1]; 0.75 g, 1.5-g/day (0.75 g BID), Day 14 morning dose, N = 6, read-out: Cmax): 2540 ng/mL | AUC ([1]; 1 g/day, 1-g/day (0.33 g TID), mean, N = 8): 41400 ng·h/mL | AUC ([1]; 1 g/day, 1-g/day (0.5 g BID), 2 times the 0-12 hour morning dose value, N = 5): 25000 ng·h/mL | AUC ([1]; 2 g/day, 2-g/day (0.67 g TID), mean, N = 7): 108000 ng·h/mL | Maximum concentrations higher with TID than BID ([1]; following the final morning dose, similar doses): approximately 27% | Dose proportionality of exposure following multiple-dose administration ([1]; within TID (2-fold) or BID (1.5-fold) dose range): approximately proportional increases | Increase in bioavailability with a high-fat meal ([2]; 0.5 g with high-fat meal versus fasted): over 60 fold | ATQ concentration versus time profile with and without vitamin E ([2]; 2 g QD dose, with and without 400-IU of vitamin E): essentially unchanged | CL/F ([2]; 2.2 g (0.735 g TID), N = 8): 22.731 L/h | Effect of dividing the dose on ATQ bioavailability ([2]; 2.2 g as 3 doses of 0.735 g 7 hours apart rather than a single unit): significantly increased ATQ bioavailability | Baseline-adjusted ATQ concentration at 24 hours as share of Cmax ([2]; 24 hours post-dose): less than 1% | Tmax ([2]; male, human, plasma, oral): 6 h | Time for ATQ concentrations to return to endogenous baseline levels ([2]; post-dose): ≤ 24 h | CL/F ([2]; single 0.5 g dose, N = 6): 25.910[b] L/h | CL/F ([2]; single 1.0 g dose, N = 7): 15.950[c] L/h | CL/F ([2]; single 2.0 g dose, N = 7): 33.404[c] L/h | CL/F ([2]; single 6.0 g dose, N = 6): 62.824[b] L/h | Dose proportionality of absorption ([2]; single doses 0.5 g to 6.0 g after high-fat breakfast): dose proportional between 0.5 g and 1 g but was blunted at higher doses | Absorption under fasted conditions ([2]; single oral doses 0.25 g and 0.5 g, fasted): poorly absorbed | Unchanged ATQ in urine samples ([2]; urine collected up to 72 hours post-dose): not detected
